Laboratory results taken from paper PMC10789121, “Amine Basicity of Quinoline ATP Synthase Inhibitors Drives Antibacterial Activity against Pseudomonas aeruginosa” (ACS Medicinal Chemistry Letters, 2023).
“And” between values parts separate entries of the source, which are not always exact repeats. Identical values can stand only once.

Molecular target: T1, PA ATP synthase (Pseudomonas aeruginosa, UniProt Q9HT15)
T1 construct: a whole operon plasmid that expresses; made in house; host or cells: Escherichia coli DK8 (K-12 strain lacking the unc operon) transformed with pASH20; used as inverted membrane vesicles, not purified
Assay: Inhibition of NADH-driven PA ATP synthesis activity in DK8/pASH20 inverted membrane vesicles (end-point luciferin/luciferase assay)
Type: biochemical
Details: <4 μg/mL; IC50 could not be determined
With CN(C)c1ccc(CNCc2cc3ccccc3nc2SCc2ccccc2)cc1 [Compound 12] the “PA ATP synthase inhibition (in words)” value was “potent PA ATP synthase inhibition at low concentrations”.

Same assay, conditions: PA ATP synthase IC50 (absolute), NADH-driven ATP synthesis, EC DK8/pASH20 inverted membrane vesicles
In the case of CSc1nc2ccccc2cc1CNCCCN(C)C [Compound 5], the IC50 is reported as 149 µM. In the case of CN(C)CCCNCc1cc2ccccc2nc1SCc1ccccc1 [Compound 6], the IC50 is reported as 16.4 µM. CSc1nc2ccccc2cc1CNCCCCN(C)C [Compound 7] showed an IC50 of 224 µM. For CN(C)CCCCNCc1cc2ccccc2nc1SCc1ccccc1 [Compound 8], the IC50 was 2.63 µM. Work on CSc1nc2ccccc2cc1CNCCCCCN(C)C [Compound 9] yielded an IC50 of 59.8 µM. For CN(C)CCCCCNCc1cc2ccccc2nc1SCc1ccccc1 [Compound 10], the IC50 was ~5.08 µM and 5.08 µM. CSc1nc2ccccc2cc1CNCc1ccc(N(C)C)cc1 [Compound 11] gave an IC50 of 14.8 µM. For CCN1CCC(CCNCc2cc3ccccc3nc2SC)CC1 [Compound 13], the IC50 was 114 µM. CCN1CCC(CCNCc2cc3ccccc3nc2SCc2ccccc2)CC1 [Compound 14] gave an IC50 of 2.38 µM. For CSc1nc2ccccc2cc1CNCCC1CCN(C2CCCC2)CC1 [Compound 15], the IC50 was 54.7 µM.

System: PA electron transport chain
Assay: Electron transport activity (ACMA fluorescence quenching) in PA 9027 inverted membrane vesicles
Type: biochemical, Pseudomonas aeruginosa
Details: not given
Description: The assay for PA ATP synthase activity in EC DK8/pASH20 membrane vesicles requires a functional EC ETC, so potent inhibition of the EC ETC by any compound would interfere with the determination of its IC50 for PA ATP synthase. […] Furthermore, potent inhibition of PA ETC could be an alternative mechanism of action for the antibacterial activity of the current series.
(§1) Determination of electron transport activity. As previously described,11 inverted membrane vesicles from PA 9027 or E. coli DK8 pASH20 were added to HMK buffer containing 0.3 µg/mL 9-amino-6-chloro-2-methoxyacridine (ACMA) and 0-64 µg/mL test compound in DMSO. After measurement of baseline ACMA fluorescence for 60 s, redox-driven H+ pumping was initiated by addition of NADH to 0.8 mM, and fluorescence quenching was monitored for 120 s before addition of nigericin to 0.5 µg/mL. Relative activity is reported as the minimum fluorescence value normalized to the maximum fluorescence value following addition of nigericin.
For CN(C)c1ccc(CNCc2cc3ccccc3nc2SCc2ccccc2)cc1 [Compound 12], the “PA ETC inhibition (in words)” value was “displayed some PA and EC ETC”.

Same assay, conditions: 4 µg/mL
With CSc1nc2ccccc2cc1CNCc1ccc(N(C)C)cc1 [Compound 11] the “% PA ETC Inhibition at 4 µg/mL” value was 20%.

Same assay, conditions: 32 µg/mL
With CSc1nc2ccccc2cc1CNCCCN(C)C [Compound 5] the “% PA ETC Inhibition at 32 µg/mL” value was 54%. With CSc1nc2ccccc2cc1CNCCCCN(C)C [Compound 7] the “% PA ETC Inhibition at 32 µg/mL” value was 72%. With CSc1nc2ccccc2cc1CNCCCCCN(C)C [Compound 9] the “% PA ETC Inhibition at 32 µg/mL” value was 74%. With CCN1CCC(CCNCc2cc3ccccc3nc2SC)CC1 [Compound 13] the “% PA ETC Inhibition at 32 µg/mL” value was 74%.

Same assay, conditions: PA 9027 inverted membrane vesicles
With CN(C)CCCNCc1cc2ccccc2nc1SCc1ccccc1 [Compound 6] the “PA ETC IC50” value was 44 µg/mL. For CN(C)CCCCNCc1cc2ccccc2nc1SCc1ccccc1 [Compound 8], the “PA ETC IC50” value was 26 [26] μg/mL. In the case of CN(C)CCCCCNCc1cc2ccccc2nc1SCc1ccccc1 [Compound 10], the “PA ETC IC50” value is reported as 57 µg/mL. With CCN1CCC(CCNCc2cc3ccccc3nc2SCc2ccccc2)CC1 [Compound 14] the “PA ETC IC50” value was 26 [26] μg/mL. In the case of CSc1nc2ccccc2cc1CNCCC1CCN(C2CCCC2)CC1 [Compound 15], the “PA ETC IC50” value is reported as 8.3 µg/mL.

System: EC electron transport chain
Assay: Electron transport activity (ACMA fluorescence quenching) in E. coli DK8 pASH20 inverted membrane vesicles
Type: biochemical, Escherichia coli
Details: not given
Description: as §1
In the case of CN(C)c1ccc(CNCc2cc3ccccc3nc2SCc2ccccc2)cc1 [Compound 12], the “EC ETC inhibition (in words)” value is reported as “displayed some PA and EC ETC”.

Same assay, conditions: 4 µg/mL
In the case of CSc1nc2ccccc2cc1CNCCCN(C)C [Compound 5], the “% EC ETC Inhibition at 4 µg/mL” value is reported as 9%. In the case of CN(C)CCCNCc1cc2ccccc2nc1SCc1ccccc1 [Compound 6], the “% EC ETC Inhibition at 4 µg/mL” value is reported as 3%. In the case of CSc1nc2ccccc2cc1CNCCCCN(C)C [Compound 7], the “% EC ETC Inhibition at 4 µg/mL” value is reported as 6%. In the case of CN(C)CCCCNCc1cc2ccccc2nc1SCc1ccccc1 [Compound 8], the “% EC ETC Inhibition at 4 µg/mL” value is reported as 0%. For CSc1nc2ccccc2cc1CNCCCCCN(C)C [Compound 9], the “% EC ETC Inhibition at 4 µg/mL” value was 22%. For CN(C)CCCCCNCc1cc2ccccc2nc1SCc1ccccc1 [Compound 10], the “% EC ETC Inhibition at 4 µg/mL” value was 14%. For CSc1nc2ccccc2cc1CNCc1ccc(N(C)C)cc1 [Compound 11], the “% EC ETC Inhibition at 4 µg/mL” value was 4%. For CCN1CCC(CCNCc2cc3ccccc3nc2SC)CC1 [Compound 13], the “% EC ETC Inhibition at 4 µg/mL” value was 20%. For CCN1CCC(CCNCc2cc3ccccc3nc2SCc2ccccc2)CC1 [Compound 14], the “% EC ETC Inhibition at 4 µg/mL” value was 16%. With CSc1nc2ccccc2cc1CNCCC1CCN(C2CCCC2)CC1 [Compound 15] the “% EC ETC Inhibition at 4 µg/mL” value was 6%.

System: PA 9027
Assay: Antimicrobial susceptibility, broth microdilution MIC
Type: cell-based
Details: Pseudomonas aeruginosa, read-out: MIC PA 9027
Description: (§2) Pseudomonas aeruginosa (ATCC 9027), Drug-Resistant Pseudomonas aeruginosa from ATCC Panel MP-23 (BAA-2108, BAA-2109, BAA-2110), and Pseudomonas aeruginosa efflux knockout GKCW120 (PD6)14 provided by Zgurskaya and co-workers at the University of Oklahoma.
(§3) Antimicrobial Susceptibility Assay Procedure. Susceptibility testing was performed in biological triplicate, using the broth microdilution method as outlined by the Clinical and Laboratory Standards Institute. Briefly, minimum inhibitory concentrations (MIC) determinations were carried out in 96-well microtiter plates with 2-fold serial dilutions of the compounds from 0 […]
(§4) Briefly, to each well 1 µL of compound in DMSO, 89 µL of TSB, and 10 µL of bacterial inoculum, grown from frozen stock in 10 mL of TSB […]
(§5) for 4-6 hours, were added. […]
(§6) on a Biotek Synergy HTX Multi-mode plate reader. Data was processed by background subtracting the media absorbance and then normalizing the data to full bacterial growth with only vehicle.
(§7) MIC is defined as the lowest concentration of antibiotic or antibiotic/adjuvant combination that achieves ≥ 85% growth inhibition, which corresponds to no visible growth. […]
Work on CN(C)CCCNCc1cc2ccccc2nc1SCc1ccccc1 [Compound 6] yielded an MIC greater than 128 µg/mL. For CN(C)CCCCNCc1cc2ccccc2nc1SCc1ccccc1 [Compound 8], the MIC was greater than 128 µg/mL. Work on CN(C)CCCCCNCc1cc2ccccc2nc1SCc1ccccc1 [Compound 10] yielded an MIC greater than 128 µg/mL. CCN1CCC(CCNCc2cc3ccccc3nc2SCc2ccccc2)CC1 [Compound 14] gave an MIC greater than 128 µg/mL.

System: PΔ6 (efflux knockout strain of PA)
Assay: as above
Type: cell-based
Details: Pseudomonas aeruginosa, read-out: MIC PΔ6
Description: as §2, §3, §4, §5, §6, §7
In the case of CN(C)CCCNCc1cc2ccccc2nc1SCc1ccccc1 [Compound 6], the MIC is reported as 16 µg/mL. CN(C)CCCCNCc1cc2ccccc2nc1SCc1ccccc1 [Compound 8] showed an MIC of 16 µg/mL. CN(C)CCCCCNCc1cc2ccccc2nc1SCc1ccccc1 [Compound 10] gave an MIC of 64 µg/mL. In the case of CCN1CCC(CCNCc2cc3ccccc3nc2SCc2ccccc2)CC1 [Compound 14], the MIC is reported as 16 µg/mL.

System: BAA 2108 (MDRPA clinical isolate)
Assay: as above
Type: cell-based, Pseudomonas aeruginosa
Details: Pseudomonas aeruginosa, BAA2108, read-out: MIC BAA 2108
Description: as §2, §3, §4, §5, §6, §7
CCN1CCC(CCNCc2cc3ccccc3nc2SCc2ccccc2)CC1 [Compound 14] showed an MIC of 32 µg/mL.

Same assay, conditions: Pseudomonas aeruginosa, BAA2108; >85% reduction in growth at OD 590 nm; n = 3; read-out: MIC BAA 2108
Work on CN(C)CCCNCc1cc2ccccc2nc1SCc1ccccc1 [Compound 6] yielded an MIC of 64 µg/mL. In the case of CN(C)CCCCNCc1cc2ccccc2nc1SCc1ccccc1 [Compound 8], the MIC is reported as 64 µg/mL. CN(C)CCCCCNCc1cc2ccccc2nc1SCc1ccccc1 [Compound 10] showed an MIC of 64 µg/mL.

System: BAA 2109 (MDRPA clinical isolate)
Assay: as above
Type: cell-based, Pseudomonas aeruginosa
Details: Pseudomonas aeruginosa, BAA2109, read-out: MIC BAA 2109
Description: as §2, §3, §4, §5, §6, §7
In the case of CCN1CCC(CCNCc2cc3ccccc3nc2SCc2ccccc2)CC1 [Compound 14], the MIC is reported as 64 µg/mL.

Same assay, conditions: Pseudomonas aeruginosa, BAA2109; >85% reduction in growth at OD 590 nm; n = 3; read-out: MIC BAA 2109
CN(C)CCCNCc1cc2ccccc2nc1SCc1ccccc1 [Compound 6] gave an MIC of 64 µg/mL. In the case of CN(C)CCCCNCc1cc2ccccc2nc1SCc1ccccc1 [Compound 8], the MIC is reported as 64 µg/mL. CN(C)CCCCCNCc1cc2ccccc2nc1SCc1ccccc1 [Compound 10] gave an MIC of 128 µg/mL.

System: BAA 2110 (MDRPA clinical isolate)
Assay: as above
Type: cell-based, Pseudomonas aeruginosa
Details: Pseudomonas aeruginosa, BAA2110, read-out: MIC BAA 2110
Description: as §2, §3, §4, §5, §6, §7
With CCN1CCC(CCNCc2cc3ccccc3nc2SCc2ccccc2)CC1 [Compound 14] the MIC was 16 µg/mL.

Same assay, conditions: Pseudomonas aeruginosa, BAA2110; >85% reduction in growth at OD 590 nm; n = 3; read-out: MIC BAA 2110
For CN(C)CCCNCc1cc2ccccc2nc1SCc1ccccc1 [Compound 6], the MIC was 32 µg/mL. In the case of CN(C)CCCCNCc1cc2ccccc2nc1SCc1ccccc1 [Compound 8], the MIC is reported as 32 µg/mL. CN(C)CCCCCNCc1cc2ccccc2nc1SCc1ccccc1 [Compound 10] gave an MIC of 64 µg/mL.

System: not listed separately
Assay: Solubility in the assay medium
Type: physicochemical
Details: assay medium of the ATP synthesis inhibition assay; read-out: Solubility in the assay medium (poor/insoluble above this concentration)
CN(C)c1ccc(CNCc2cc3ccccc3nc2SCc2ccccc2)cc1 [Compound 12] showed a solubility of no more than 16 µg/mL.

System: not given
Assay: not given
Set-up: method as in earlier work
Details: value of the C2 functional group; cited from earlier work
In the case of CN(C)CCCNCc1cc2ccccc2nc1SCc1ccccc1 [Compound 6], the “approximate pKa (NH+) of C2 side chain conjugate acid” value (“approximate pKa (NH+)” below) is given as “above 6”. In the case of CN(C)CCCCNCc1cc2ccccc2nc1SCc1ccccc1 [Compound 8], the “approximate pKa (NH+)” value is given as greater than 6. For CN(C)CCCCCNCc1cc2ccccc2nc1SCc1ccccc1 [Compound 10], the “approximate pKa (NH+)” value is listed as “above 6”. For CSc1nc2ccccc2cc1CNCc1ccc(N(C)C)cc1 [Compound 11], the “approximate pKa (NH+)” value is listed as “∼5”. In the case of CCN1CCC(CCNCc2cc3ccccc3nc2SCc2ccccc2)CC1 [Compound 14], the “approximate pKa (NH+)” value is listed as “above 6”.
